{"source": "patent US20240059703A1", "about": "(AMGEN INC., priority 2021, published 2024)", "key": {"KRAS G12C": {"biological_target": "KRAS G12C (Homo sapiens (Human), UniProt P01116, C118A/G12C)", "sequence (P01116 other isoform, or with tags, fused parts or gaps G12C/C118A)": "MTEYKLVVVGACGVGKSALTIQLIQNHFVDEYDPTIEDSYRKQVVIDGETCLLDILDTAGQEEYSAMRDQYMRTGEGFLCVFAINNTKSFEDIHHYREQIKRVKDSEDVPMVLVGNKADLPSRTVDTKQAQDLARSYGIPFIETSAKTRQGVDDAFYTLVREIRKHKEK", "test": "2 h coupled exchange assay", "type": "biochemical", "conditions": "Avg 2 h Coupled exchange IC50, 2 h compound pre-incubation", "protocol": "The term “2 h coupled exchange assay” or “20 h coupled exchange assay” as used herein refers to the assay described in the Section entitled “BIOLOGICAL EVALUATION.”"}, "[1]": {"test_system": "MIA PaCa-2 (human pancreatic carcinoma) cells", "test": "Cell Viability Assay (CellTiter-Glo), MIA PaCa-2", "type": "cell-based", "conditions": "Homo sapiens, MIA PaCa-2, 72 h", "protocol": "(§1) Serially-diluted compound or DMSO was added to the cells, and plates were incubated at 37° C., 5% CO2 for 72 h. Cell viability was measured using a CellTiter-Glo® Luminescent Cell Viability Assay kit (Promega) according to the manufacturer's protocol. The luminescence signal of treated samples was normalized to DMSO control, and data were analyzed using a 4-parameter logistic model to calculate IC50 values."}, "[2]": {"test_system": "A549 (human lung carcinoma) cells", "test": "Cell Viability Assay (CellTiter-Glo), A549", "type": "cell-based", "conditions": "Homo sapiens, A549, 72 h", "protocol": "as §1, with “MIA PaCa-2 (human pancreatic carcinoma; ATCC CRL-1420) or A549 (human lung carcinoma; ATCC CCL-185) cells were cultured in RPMI 1640 medium containing 10% fetal bovine serum and 1× penicillin/streptomycin/L-glutamine. Cells were seeded in 384-well plates at a density of 1.67E+04 cells/mL and incubated at 37° C., 5% CO2, overnight. Serially-diluted” for “Serially-diluted”"}, "[3]": {"conditions": "SOS-mediated nucleotide exchange"}}, "data": [{"smiles": "C=CC(=O)N1CC2(CCN(c3nc4c(c(-c5cc(O)ccc5C)c3C#N)COC(C)(C)C4)C2)C1", "note": "[Example 13-112, 4-(5-hydroxy-2-methylphenyl)-7,7-dimethyl-2-(2-(2-propenoyl)-2,6-diazaspiro[3.4]octan-6-yl)-7,8-dihydro-5H-pyrano[4,3-b]pyridine-3-carbonitrile]", "values": [{"measurement": "IC50", "setting": "KRAS G12C; [3]", "result": 117, "unit": "nM"}, {"measurement": "IC50", "setting": "[1]", "result": "> 5000", "unit": "nM"}, {"measurement": "IC50", "setting": "[2]", "result": "> 5000", "unit": "nM"}]}, {"smiles": "C=CC(=O)N1CC2(CCN(c3nc4c(c(-c5ccccc5Cl)c3C#N)CCC(c3ccnn3C)C4)C2)C1", "note": "[Example 13-19, (7R)-4-(2-chlorophenyl)-7-(1-methyl-1H-pyrazol-5-yl)-2-(2-(2-propenoyl)-2,6-diazaspiro[3.4]octan-6-yl)-5,6,7,8-tetrahydro-3-quinolinecarbonitrile|(7S)-4-(2-chlorophenyl)-7-(1-methyl-1H-pyrazol-5-yl)-2-(2-(2-propenoyl)-2,6-diazaspiro[3.4]octan-6-yl)-5,6,7,8-tetrahydro-3-quinolinecarbonitrile]", "values": [{"measurement": "IC50", "setting": "KRAS G12C; [3]", "result": 64, "unit": "nM"}, {"measurement": "IC50", "setting": "[1]", "result": 338, "unit": "nM"}, {"measurement": "IC50", "setting": "[2]", "result": "> 5000", "unit": "nM"}]}, {"smiles": "C=CC(=O)N1CC2(CCN(c3nc4c(c(-c5c(C)ccc6[nH]ncc56)n3)CCC(C)C4)C2)C1", "note": "(stereo not shown) [Example 1-11, 1-(6-((7)-7-methyl-4-(5-methyl-1H-indazol-4-yl)-5,6,7,8-tetrahydro-2-quinazolinyl)-2,6-diazaspiro[3.4]octan-2-yl)-2-propen-1-one]", "values": [{"measurement": "IC50", "setting": "KRAS G12C; [3]", "result": 3090, "unit": "nM"}, {"measurement": "IC50", "setting": "[1]", "result": "> 5000", "unit": "nM"}, {"measurement": "IC50", "setting": "[2]", "result": "> 5000", "unit": "nM"}]}, {"smiles": "C=CC(=O)N1CC2(CCN(c3nc4c(c(-c5cc(O)cc6ccccc56)c3Cl)COC(C)(C)C4)C2)C1", "note": "(single isomer, unassigned) [Example 2-78, (P)-1-(6-(3-chloro-4-(3-hydroxy-1-naphthalenyl)-7,7-dimethyl-7,8-dihydro-5H-pyrano[4,3-b]pyridin-2-yl)-2,6-diazaspiro[3,4]octan-2-yl)-2-propen-1-one]", "values": [{"measurement": "IC50", "setting": "[1]", "result": 14, "unit": "nM"}, {"measurement": "IC50", "setting": "[2]", "result": "> 5000", "unit": "nM"}]}, {"smiles": "C=CC(=O)N1CC2(CCN(c3nc4c(c(-c5cc(O)cc6ccccc56)c3F)C[C@H]3C[C@@H]4C3(C)C)C2)C1", "note": "(single isomer, unassigned) [Example 14-77]", "values": [{"measurement": "IC50", "setting": "[2]", "result": "> 5000", "unit": "nM"}]}, {"smiles": "C=CC(=O)N1CC2(CCN(c3nc4c(c(-c5cc(O)cc6ccccc56)c3Cl)COC(C)(C)C4)C2)C1", "note": "[Example 2-76, 1-(6-(3-chloro-4-(3-hydroxy-1-naphthalenyl)-7,7-dimethyl-7,8-dihydro-5H-pyrano[4,3-b]pyridin-2-yl)-2,6-diazaspiro[3.4]octan-2-yl)-2-propen-1-one]", "values": [{"measurement": "IC50", "setting": "[1]", "result": 26, "unit": "nM"}, {"measurement": "IC50", "setting": "[2]", "result": "> 5000", "unit": "nM"}]}, {"smiles": "C=CC(=O)N1CC2(CCN(c3nc4c(c(-c5cc(O)cc6ccccc56)c3F)C[C@H]3C[C@@H]4C3(C)C)C2)C1", "note": "[Example 14-1, 1-(6-((1R,9R)-5-fluoro-6-(3-hydroxy-1-naphthalenyl)-10,10-dimethyl-3-azatricyclo[7.1.1.0^2,7]undeca-2,4,6-trien-4-yl)-2,6-diazaspiro[3.4]octan-2-yl)-2-propen-1-one]", "values": [{"measurement": "IC50", "setting": "[1]", "result": 39, "unit": "nM"}, {"measurement": "IC50", "setting": "[2]", "result": "> 5000", "unit": "nM"}]}, {"smiles": "C=CC(=O)N1CC2(CCN(c3nc4ccccc4c(-c4c(C)ccc5[nH]ncc45)c3C)C2)C1", "note": "(single isomer, unassigned) [Example 2-56, (M)-1-(6-(3-methyl-4-(5-methyl-1H-indazol-4-yl)-2-quinolinyl)-2,6-diazaspiro[3.4]octan-2-yl)-2-propen-1-one]", "values": [{"measurement": "IC50", "setting": "KRAS G12C; [3]", "result": 43600, "unit": "nM"}]}, {"smiles": "C=CC(=O)N1CC2(CCN(c3nc4c(c(-c5cc(O)ccc5C)c3C#N)[C@H]3CC[C@@H]4C3)C2)C1", "note": "(single isomer, unassigned) [Example 14-14]", "values": [{"measurement": "IC50", "setting": "KRAS G12C; [3]", "result": 108, "unit": "nM"}]}, {"smiles": "C=CC(=O)N1CC2(CCN(c3nc4c(c(-c5c(C)ccc6cnn(C)c56)c3F)C[C@H]3C[C@@H]4C3(C)C)C2)C1", "note": "(single isomer, unassigned) [Example 14-64]", "values": [{"measurement": "IC50", "setting": "KRAS G12C", "result": 11800, "unit": "nM"}]}, {"smiles": "C=CC(=O)N1CC2(CCN(c3nc4c(c(-c5c(O)ccc6ccccc56)c3C#N)C[C@H]3C[C@@H]4C3)C2)C1", "note": "[Example 13-35, (1S,9S)-6-(2-hydroxy-1-naphthalenyl)-4-(2-(2-propenoyl)-2,6-diazaspiro[3.4]octan-6-yl)-3-azatricyclo[7.1.1.0^2,7]undeca-2,4,6-triene-5-carbonitrile]", "values": [{"measurement": "IC50", "setting": "KRAS G12C; [3]", "result": 1780, "unit": "nM"}]}, {"smiles": "C=CC(=O)N1CC2(CCN(c3nc4c(c(-c5ccc(F)c6sc(N)nc56)c3C)COC(C)(C)C4)C2)C1", "note": "(single isomer, unassigned) [Example 14-39, (M)-1-(6-(4-(2-amino-7-fluoro-1,3-benzothiazol-4-yl)-3,7,7-trimethyl-7,8-dihydro-5H-pyrano[4,3-b]pyridin-2-yl)-2,6-diazaspiro[3.4]octan-2-yl)-2-propen-1-one]", "values": [{"measurement": "IC50", "setting": "KRAS G12C", "result": 1770, "unit": "nM"}]}, {"smiles": "C=CC(=O)N1CC2(CCN(c3nc4c(c(-c5cc(O)c(F)c6ccccc56)c3C#N)CC(C)(C)C4)C2)C1", "note": "[Example 13-70, 4-(4-fluoro-3-hydroxy-1-naphthalenyl)-6,6-dimethyl-2-(2-(2-propenoyl)-2,6-diazaspiro[3.4]octan-6-yl)-6,7-dihydro-5H-cyclopenta[b]pyridine-3-carbonitrile]", "values": [{"measurement": "IC50", "setting": "KRAS G12C; [3]", "result": 291, "unit": "nM"}]}, {"smiles": "C=CC(=O)N1CC2(CCN(c3nc4c(c(-c5cc(O)cc6cccnc56)c3C#N)C[C@H]3C[C@@H]4C3(C)C)C2)C1", "note": "[Example 2-43, (1R,9R)-6-(6-hydroxy-8-quinolinyl)-10,10-dimethyl-4-(2-(2-propenoyl)-2,6-diazaspiro[3,4]octan-6-yl)-3-azatricyclo[7.1.1.0^2,7]undeca-2,4,6-triene-5-carbonitrile]", "values": [{"measurement": "IC50", "setting": "KRAS G12C; [3]", "result": 193, "unit": "nM"}]}, {"smiles": "C=CC(=O)N1CC2(CCN(c3nc(-c4c(C)ccc5[nH]ncc45)c4ccc(C)cc4n3)C2)C1", "note": "[Example 1-40, 1-(6-(7-methyl-4-(5-methyl-1H-indazol-4-yl)-2-quinazolinyl)-2,6-diazaspiro[3.4]octan-2-yl)-2-propen-1-one]", "values": [{"measurement": "IC50", "setting": "KRAS G12C; [3]", "result": 9010, "unit": "nM"}]}, {"smiles": "C=CC(=O)N1CC2(CCN(c3nc4c(c(-c5ccccc5Cl)c3C#N)CC(C)(C)C4)C2)C1", "note": "(single isomer, unassigned) [Example 13-25, (P)-4-(2-chlorophenyl)-6,6-dimethyl-2-(2-(2-propenoyl)-2,6-diazaspiro[3.4]octan-6-yl)-6,7-dihydro-5H-cyclopenta[b]pyridine-3-carbonitrile]", "values": [{"measurement": "IC50", "setting": "KRAS G12C; [3]", "result": 337, "unit": "nM"}]}, {"smiles": "C=CC(=O)N1CC2(CCN(c3nc4c(c(-c5cccc6cc(O)ccc56)c3C)CCC(C)(C)C4)C2)C1", "note": "(single isomer, unassigned) [Example 2-14, (M)-1-(6-(4-(6-hydroxy-1-naphthalenyl)-3,7,7-trimethyl-5,6,7,8-tetrahydro-2-quinolinyl)-2,6-diazaspiro[3.4]ctan-2-yl)-2-opropen-1-one]", "values": [{"measurement": "IC50", "setting": "KRAS G12C; [3]", "result": 2900, "unit": "nM"}]}, {"smiles": "C=CC(=O)N1CC2(CCN(c3nc4cc(-c5ccnn5C)ccc4c(-c4cccc(F)c4Cl)c3C)C2)C1", "note": "[Example 16-7, 1-(6-(4-(2-chloro-3-fluorophenyl)-3-methyl-7-(1-methyl-1H-pyrazol-5-yl)-2-quinolinyl)-2,6-diazaspiro[3.4]octan-2-yl)-2-propen-1-one]", "values": [{"measurement": "IC50", "setting": "KRAS G12C", "result": 716, "unit": "nM"}]}, {"smiles": "C=CC(=O)N1CC2(CCN(c3nc4c(c(-c5cc(O)ccc5C)c3C#N)C3CCC4C3)C2)C1", "note": "[Example 2-37, (1R,8S)-6-(5-hydroxy-2-methylphenyl)-4-(2-(2-propenoyl)-2,6-diazaspiro[3.4]octan-6-yl)-3-azatricyclo[6.2.1.0^2,7]undeca-2,4,6-triene-5-carbonitrile|(1S, 8R)-6-(5-hydroxy-2-methylphenyl)-4-(2-(2-propenoyl)-2,6-diazaspiro[3,4]octan-6-yl)-3-azatricyclo[6.2.1.0^2.7]undeca-2,4,6-triene-5-carbonitrile]", "values": [{"measurement": "IC50", "setting": "KRAS G12C; [3]", "result": 298, "unit": "nM"}]}]}
